Here are results for 24 compounds from patent publication US12453731B2, “Aniline-based WDR5 protein-protein interaction inhibitor, and preparation method and use thereof” (CHINA PHARMACEUTICAL UNIVERSITY, priority 2019, dated 2025).

The structures appear in SMILES notation. Where two headings read alike, the source gives them in different places.

For assay [1], the target named is MLL1-WDR5 PPI (Homo sapiens (Human), UniProt P61964). Briefly: fluorescent probe assay of MLL1-WDR5 protein-protein interaction inhibition. The settings on record: fluorescent probe based on MLL1 peptide, incubation 0.5 hrs, read-out: MLL1-WDR5 PPI inhibiting activity IC50. The format is binding. The protocol:
In the present disclosure, a fluorescent molecular probe was constructed based on a MLL1 peptide fragment binding to WDR5, for use as a method for study on an aniline compound interfering with WDR5 protein-protein interaction, to determine an inhibition rate of the aniline compound at various concentrations, and then compute the IC50 value. Specific experimental steps: 20 μL of WDR5 protein, 20 μL of a fluorescent probe, and 20 μL of a compound of different concentration gradients were added to a 384-well plate respectively. After incubation for 0.5 hrs, the fluorescence was read on a multifunctional microplate reader at an excitation wavelength of 485 nm and an emission wavelength of 535 nm, to compute the mP value. The inhibition rate was computed as per the formula below, and then the IC50 value was computed using GraphPad software.

The test system of assay [2] is methylation level of H3K4. Briefly: inhibition of the methylation level of H3K4 (methyltransferase activity). The format is biochemical.
Assay [3] deals with MV4-11 human acute mononuclear leukemia cells. Briefly: anti-proliferative activity against leukemia cells MV4-11. The format is cell-based. The settings on record: read-out: GI50 (MV-411). The text has this:
(§1) Some compounds of the present disclosure have also been tested for the antiproliferative activity against leukemia cells.

Assay [4] relates to Molm-13 human acute myeloid leukemia cells. Briefly: anti-proliferative activity against leukemia cells Molm-13. The assay is classed as cell-based.
Text: as §1

Where [5] appears, read: Homo sapiens, MV4-11, MV4-11 cells.
Where [6] appears, read: Homo sapiens, MOLM-13, Molm-13 cells.

The term IC50 denotes the midpoint of a concentration-inhibition curve. As a reminder, the GI50 is the concentration at which growth is held to half of that of the control. For `Cc1c(F)c(N)cc(C(=O)Nc2cc(-c3ccc(N)cc3)ccc2N2CCN(C)CC2)c1Cl` [DDO-2084, reference compound], the concentration for half-maximal inhibition (IC50) in assay [1] turned out to be 338 µM. In addition, the “Whether the methylation level of H3K4 was inhibited” value in assay [2] is on record as “Yes”. Further, the 50% growth inhibitory concentration (GI50) in assay [3] (MV4-11 cells) worked out at 17.7 ± 2.3 µM.

Turning to `CN1CCN(c2ccc([N+](=O)[O-])cc2Nc2cc(Cl)ncn2)CC1` [Example 2, 6-chloro-N-(2-(4-methylpiperazin-1-yl)-5-nitrophenyl)pyrimidine-4-amine], the half-maximal inhibitory concentration (IC50) in assay [1] was 10.3 µM.

In the case of `CN1CCN(c2ccc([N+](=O)[O-])cc2Nc2ncnc(Cl)c2N)CC1` [Example 7, 6-chloro-N^4-(2-(4-methylpiperazin-1-yl)-5-nitrophenyl)pyrimidine-4,5-diamine], the IC50 in assay [1] is 2.66 µM.

With `CN1CCN(c2ccc(-c3ccc(C(=O)N4CCOCC4)cc3)cc2Nc2ncnc(Cl)c2N)CC1` [Example 23, (3″-((5-amino-6-chloropyrimidin-4-yl)amino)-4-(4-methylpiperazin-1-yl)-[1,1′-biphenyl]-4-yl)(morpholino)methanone], the half-maximal inhibitory concentration (IC50) in assay [1] was determined as 0.186 µM. Besides, the “Whether the methylation level of H3K4 was inhibited” value in assay [2] is given as “Yes”. For the same compound, the concentration for 50% growth inhibition (GI50) in assay [3] (setting [5]) stood at 16.7 µM; in assay [4] (setting [6]), 23.4 µM.

As for `CN1CCN(c2ccc(-c3ccc(C(=O)NCCN4CCOCC4)cc3)cc2Nc2ncnc(Cl)c2N)CC1` [Example 24, 3″-((5-amino-6-chloropyrimidin-4-yl)amino)-4″-(4-methylpiperazin-1-yl)-N-(2-morpholinoethyl)-[1,1′-biphenyl]-zole-4-carboxamide], in assay [1], the IC50 worked out at 0.183 µM. Further, in assay [2], the “Whether the methylation level of H3K4 was inhibited” value is recorded as “Yes”. In addition, the concentration for 50% growth inhibition (GI50) in assay [3] (setting [5]) stood at 11 µM; in assay [4] (setting [6]) it was 17.6 µM.

On to `CN1CCN(c2ccc(-c3ccc(C(=O)NCCCN4CCOCC4)cc3)cc2Nc2ncnc(Cl)c2N)CC1` [Example 25, 3″-((5-amino-6-chloropyrimidin-4-yl)amino)-4″-(4-methylpiperazin-1-yl)-N-(3-morpholinopropyl)-[1,1′-biphenyl]-zole-4-carboxamide], for which, in assay [1], the half-maximal inhibitory concentration (IC50) worked out at 0.165 µM. In addition, the “Whether the methylation level of H3K4 was inhibited” value in assay [2] is on record as “Yes”. The GI50 stood at 24.9 µM in assay [3] (setting [5]) and 20.8 µM in assay [4] (setting [6]).

Consider `CN1CCN(c2ccc(-c3ccc(C(=O)N(C)C)cc3)cc2Nc2ncnc(Cl)c2N)CC1` [Example 26, 3″-((5-amino-6-chloropyrimidin-4-yl)amino)-N,N-dimethyl-4″-(4-methylpiperazin-1-yl)-[1,1′-biphenyl]-4-carboxamide], for which the 50% inhibitory concentration (IC50) in assay [1] turned out to be 0.36 µM. In assay [2], the “Whether the methylation level of H3K4 was inhibited” value is on record as “Yes”. In addition, the 50% growth inhibitory concentration (GI50) in assay [3] (setting [5]) came out at 48.6 µM; in assay [4] (setting [6]), 30.7 µM.

Turning to `CN1CCN(C(=O)c2ccc(-c3ccc(N4CCN(C)CC4)c(Nc4ncnc(Cl)c4N)c3)cc2)CC1` [Example 27, (3″-((5-amino-6-chloropyrimidin-4-yl)amino)-4″-(4-methylpiperazin-1-yl)-[1,1′-biphenyl]-4-yl)(4-methylpiperazin-1-yl) methanone], the half-inhibitory concentration (IC50) in assay [1] is 0.217 µM. Moreover, the “Whether the methylation level of H3K4 was inhibited” value in assay [2] is “Yes”. Besides, the GI50 is 39.2 µM in assay [3] (setting [5]) and 34 µM in assay [4] (setting [6]).

With `CN(C)CCCNC(=O)c1ccc(-c2ccc(N3CCN(C)CC3)c(Nc3ncnc(Cl)c3N)c2)cc1` [Example 28, 3″-((5-amino-6-chloropyrimidin-4-yl)amino)-N-(3-(dimethylamino)propyl)-4″-(4-methylpiperazin-1-yl)-[1,1′-biphenyl]-4-carboxamide], the half-maximal inhibitory concentration (IC50) in assay [1] was found to be 0.27 µM. The “Whether the methylation level of H3K4 was inhibited” value in assay [2] is “Yes”. The values for the 50% growth inhibitory concentration (GI50) in assay [3] (setting [5]) and in assay [4] (setting [6]) were 29.7 µM and 24.3 µM, respectively.

Regarding `CN1CCN(c2ccc(-c3ccc(NC(=O)c4ccccc4)cc3)cc2Nc2ncnc(Cl)c2N)CC1` [Example 37, N-(3″-((5-amino-6-chloropyrimidin-4-yl)amino)-4″-(4-methylpiperazin-1-yl)-[1,1′-biphenyl]-4-yl)benzenecarboxamide], the half-inhibitory concentration (IC50) in assay [1] is 5.55 µM. Also, in assay [2], the “Whether the methylation level of H3K4 was inhibited” value is given as “Yes”.

On to `COc1ccc(-c2ccc(N3CCN(C)CC3)c(Nc3ncnc(Cl)c3N)c2)cc1` [Example 42, 6-chloro-N-(4′-methoxyl-4-(4-methylpiperazin-1-yl)-[1,1′-biphenyl]-3-yl)pyrimidine-4,5-diamine], for which the half-maximal inhibitory concentration (IC50) in assay [1] stood at 1.56 µM.

`CN1CCN(c2ccc(-c3ccoc3)cc2Nc2ncnc(Cl)c2N)CC1` [Example 43, 6-chloro-N^4-(5-(furan-3-yl)-2-(4-methylpiperazin-1-yl)phenyl)pyrimidine-4,5-diamine]: the IC50 in assay [1] was found to be 11.4 µM.

For `CN1CCN(c2ccc(-c3cncnc3)cc2Nc2ncnc(Cl)c2N)CC1` [Example 44, 6-chloro-N^4-(2-(4-methylpiperazin-1-yl)-5-(pyrimidine-5-yl)phenyl)pyrimidine-4,5-diamine], in assay [1], the IC50 is 5.71 µM.

Regarding `CN1CCN(c2ccc(-c3ccncc3)cc2Nc2ncnc(Cl)c2N)CC1` [Example 45, 6-chloro-N^4-(2-(4-methylpiperazin-1-yl)-5-(pyridin-4-yl)phenyl)pyrimidine-4,5-diamine], in assay [1], the IC50 was found to be 0.56 µM. Further, the 50% growth inhibitory concentration (GI50) in assay [3] (setting [5]) was 27.3 µM; in assay [4] (setting [6]), 23.2 µM.

Turning to `CN1CCN(c2ccc(-n3cc(C(=O)NCCCN4CCOCC4)nn3)cc2Nc2ncnc(Cl)c2N)CC1` [Example 48, 1-(3-((5-amino-6-chloropyrimidin-4-yl)amino)-4-(4-methylpiperazin-1-yl)phenyl)-N-(3-morpholinopropyl)-1H-1,2,3-triazole-4-carboxamide], the 50% inhibitory concentration (IC50) in assay [1] is 1.09 µM.

In the case of `CN1CCN(C(=O)c2cn(-c3ccc(N4CCN(C)CC4)c(Nc4ncnc(Cl)c4N)c3)nn2)CC1` [Example 49, (1-(3-((5-amino-6-chloropyrimidin-4-yl)amino)-4-(4-methylpiperazin-1-yl)phenyl)-1H-1,2,3-triazole-4-yl)(4-methylpiperazin-1-yl)methanone], in assay [1], the half-inhibitory concentration (IC50) worked out at 1.25 µM.

Take `CN1CCN(c2ccc(-n3cc(C(=O)N(C)C)nn3)cc2Nc2ncnc(Cl)c2N)CC1` [Example 50, 1-(3-((5-amino-6-chloropyrimidin-4-yl)amino)-4-(4-methylpiperazin-1-yl)phenyl)-N,N-dimethyl-1H-1,2,3-triazole-4-carboxamide]: the “Whether the methylation level of H3K4 was inhibited” value in assay [2] is on record as “Yes”. Besides, the 50% growth inhibitory concentration (GI50) in assay [3] (setting [5]) came out at 29.6 µM; in assay [4] (setting [6]) it was 35.5 µM.

With `CN1CCN(c2ccc(-n3cc(C(=O)N(C)C)nn3)cc2Nc2ncnc(Cl)c2N)CC1` [Example 51, 1-(3-((5-amino-6-chloropyrimidin-4-yl)amino)-4-(4-methylpiperazin-1-yl)phenyl)-N,N-dimethyl-1H-1,2,3-triazole-4-carboxamide], the “Whether the methylation level of H3K4 was inhibited” value in assay [2] was “Yes”. Moreover, the figures for the GI50 in assay [3] (MV4-11 cells) and in assay [4] (Molm-13 cells) were 38 µM and 39 µM, respectively.

With `CN(C)CCNC(=O)c1cn(-c2ccc(N3CCN(C)CC3)c(Nc3ncnc(Cl)c3N)c2)nn1` [Example 52, 1-(3-((5-amino-6-chloropyrimidin-4-yl)amino)-4-(4-methylpiperazin-1-yl)phenyl)-N-(2-(dimethylamino)ethyl)-1H-1,2,3-triazole-4-carboxamide], in assay [1], the 50% inhibitory concentration (IC50) is 1.56 µM.

Regarding `CN1CCN(c2ccc(-n3cc(C(=O)NCCN4CCCC4)nn3)cc2Nc2ncnc(Cl)c2N)CC1` [Example 53, 1-(3-((5-amino-6-chloropyrimidin-4-yl)amino)-4-(4-methylpiperazin-1-yl)phenyl)-N-(2-(pyrrolidin-1-yl)ethyl)-1H-1,2,3-triazole-4-carboxamide], in assay [1], the IC50 came to 1.61 µM.

With `Cc1c(-c2ccc(C(=O)N(C)C)cc2)ccc(N2CCN(C)CC2)c1Nc1ncnc(Cl)c1N` [Example 65, 3″-((5-amino-6-chloropyrimidin-4-yl)amino)-N,N,2′-trimethyl-4″-(4-methylpiperazin-1-yl)-[1,1′-biphenyl]-4-carboxamide], in assay [1], the half-inhibitory concentration (IC50) came to 0.671 µM.

Consider `COC(=O)c1ccc(-c2cc(Nc3ncnc(Cl)c3N)c(N3CCN(C)CC3)cc2F)cc1` [Example 66, Methyl 5′-((5-amino-6-chloropyrimidin-4-yl)amino)-2′-fluoro-4′-(4-methylpiperazin-1-yl)-[1,1′-biphenyl]-4-carboxylate], for which the IC50 in assay [1] is 0.04 µM. Besides, in assay [2], the “Whether the methylation level of H3K4 was inhibited” value was “Yes”. For the same compound, the GI50 in assay [3] (setting [5]) was 14.4 µM.

On to `COC(=O)c1ccc(-c2cc(Nc3ncnc(Cl)c3N)c(N3CCN(C)CC3)cc2C)cc1` [Example 73, Methyl 5′-((5-amino-6-chloropyrimidin-4-yl)amino)-2′-methyl-4′-(4-methylpiperazin-1-yl)-[1,1′-biphenyl]-4-carboxylate], for which the IC50 in assay [1] was 0.316 µM. For the same compound, in assay [2], the “Whether the methylation level of H3K4 was inhibited” value is listed as “Yes”.

Turning to `Cc1cc(N2CCN(C)CC2)c(Nc2ncnc(Cl)c2N)cc1-c1ccc(C(=O)NCCCN2CCOCC2)cc1` [Example 74, 5″-((5-amino-6-chloropyrimidin-4-yl)amino)-2′-methyl-4″-(4-methylpiperazin-1-yl)-N-(3-morpholinopropyl)-[1,11,1′-terphenyl]-4-carboxamide], the half-inhibitory concentration (IC50) in assay [1] is 0.465 µM. Besides, in assay [2], the “Whether the methylation level of H3K4 was inhibited” value is “Yes”.
